US6472348B1, “Pyridone derivatives and herbicides” (Kumiai Chemical Industry Co., Ltd., priority 1996, dated 2002)

Assays:
barnyardgrass (Ec) [1] = experiment: Test Example 1: herbicidal effects by paddy field soil treatment; assay type: in vivo; details: 100 g of the active ingredient per 10 ares, 21st day after the application, index 0-5 of Table 47;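 also: grade of growth control; 5 = at least 90%; 4 = 70 to 90%; 3 = 50 to 70%; 2 = 30 to 50%; 1 = 10 to 30%; 0 = under 10%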
Method in brief: (§1)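 Greenhouse pot test in flooded paddy soil, dosed at 100 g a.i. per 10 ares; effect scored on day 21.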

bulrush (Sc) = experiment: as above; assay type: in vivo; details: 100 g of the active ingredient per 10 ares, 21st day after the application, index 0-5 of Table 47;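 also: grade of growth control; 5 = at least 90%; 4 = 70 to 90%; 3 = 50 to 70%; 2 = 30 to 50%; 1 = 10 to 30%; 0 = under 10%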
Method in brief: as §1

monochoria (Mo) = experiment: as above; assay type: in vivo; details: 100 g of the active ingredient per 10 ares, 21st day after the application, index 0-5 of Table 47;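 also: grade of growth control; 5 = at least 90%; 4 = 70 to 90%; 3 = 50 to 70%; 2 = 30 to 50%; 1 = 10 to 30%; 0 = under 10%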
Method in brief: as §1

Digitaria ciliaris (Di) = experiment: Test Example 2: herbicidal effects by upland field soil treatment; assay type: in vivo; details: 100 g of the active ingredient per 10 ares, 21st day after the application, index 0-5 of Table 47;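 also: grade of growth control; 5 = at least 90%; 4 = 70 to 90%; 3 = 50 to 70%; 2 = 30 to 50%; 1 = 10 to 30%; 0 = under 10%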
Description: (§2) (Test on Herbicidal Effects by Upland Field Soil Treatment)

barnyardgrass (Ec) [2] = experiment: as above; assay type: in vivo; details: 100 g of the active ingredient per 10 ares, 21st day after the application, index 0-5 of Table 47
Description: as §2

[3] = tested on: common lambsquarters (Ch); experiment: as above; assay type: in vivo; details: 100 g of the active ingredient per 10 ares, 21st day after the application, index 0-5 of Table 47
Description: as §2

pale smartweed (Po) [4] = experiment: as above; assay type: in vivo; details: 100 g of the active ingredient per 10 ares, 21st day after the application, index 0-5 of Table 47
Description: as §2

rice flatsedge (Ci) [5] = experiment: as above; assay type: in vivo; details: 100 g of the active ingredient per 10 ares, 21st day after the application, index 0-5 of Table 47
Description: as §2

slender amaranth (Am) [6] = experiment: as above; assay type: in vivo; details: 100 g of the active ingredient per 10 ares, 21st day after the application, index 0-5 of Table 47
Description: as §2

Diaitaria ciliaris (Di) [7] = experiment: Test Example 3: herbicidal effects by upland field foliage treatment; assay type: in vivo; parameters: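 grade of growth control; 5 = at least 90%; 4 = 70 to 90%; 3 = 50 to 70%; 2 = 30 to 50%; 1 = 10 to 30%; 0 = under 10%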; details: 100 g of the active ingredient per 10 ares, evaluated on the 14th day after treatment
Method in brief: (§3)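 Scores reflect herbicidal effect graded by standards on the 14th day after foliage treatment of weeds grown 2 weeks in a greenhouse.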

barnyardgrass (Ec) [8] = experiment: as above; assay type: in vivo; parameters: scale not given here; details: 100 g of the active ingredient per 10 ares, evaluated on the 14th day after treatment
Method in brief: as §3

[9] = tested on: common lambsquarters (Ch); experiment: as above; assay type: in vivo; parameters: scale not given here; details: 100 g of the active ingredient per 10 ares, evaluated on the 14th day after treatment
Method in brief: as §3

pale smartweed (Po) [10] = experiment: as above; assay type: in vivo; parameters: scale not given here; details: 100 g of the active ingredient per 10 ares, evaluated on the 14th day after treatment
Method in brief: as §3

rice flatsedge (Ci) [11] = experiment: as above; assay type: in vivo; parameters: scale not given here; details: 100 g of the active ingredient per 10 ares, evaluated on the 14th day after treatment
Method in brief: as §3

slender amaranth (Am) [12] = experiment: as above; assay type: in vivo; parameters: scale not given here; details: 100 g of the active ingredient per 10 ares, evaluated on the 14th day after treatment
Method in brief: as §3

cotton (Go) = experiment: Test Example 4: crop plant selectivity by upland field soil treatment (cotton), phytotoxicity; assay type: in vivo; parameters: scale not given here; details: evaluated 21st day after application
Method in brief: (§4)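 Weeds and cotton, sown in sand and topped with soil, received a soil-applied treatment. Evaluation after three weeks in a greenhouse followed a standard rating scale.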

Diaitaria ciliaris (Di) [13] = experiment: Test Example 4: crop plant selectivity by upland field soil treatment (cotton), herbicidal effects; assay type: in vivo; details: evaluated 21st day after application
Experimental: (Test on Crop Plant Selectivity by Upland Field Soil Treatment)
In a plastic pot (surface area: 600 cm^2) filled with sand, cotton (Go), Diaitaria ciliaris (Di), green foxtail (Se), pale smartweed (Po), slender amaranth (Am), common lambsquarters (Ch) and China jute (Ab) were sown and covered with soil. […] The plants were then cultured in a green house, and the evaluation of the herbicidal effects and phytotoxicity was conducted on the 21st day after the application in accordance with the standards as identified in Table 47. Symbol—represents “not tested”.

China jute (Ab) [14] = experiment: as above; assay type: in vivo; parameters: scale not given here; details: evaluated 21st day after application
Method in brief: as §4

[15] = tested on: common lambsquarters (Ch); experiment: as above; assay type: in vivo; parameters: scale not given here; details: evaluated 21st day after application
Method in brief: as §4

green foxtail (Se) = experiment: as above; assay type: in vivo; parameters: scale not given here; details: dose 6.3 g ai/10 a, evaluated 21st day after application
Method in brief: as §4

pale smartweed (Po) [16] = experiment: as above; assay type: in vivo; parameters: scale not given here; details: evaluated 21st day after application
Method in brief: as §4

slender amaranth (Am) [17] = experiment: as above; assay type: in vivo; parameters: scale not given here; details: evaluated 21st day after application
Method in brief: as §4

wheat (Tr) = experiment: Test Example 9: crop plant selectivity by upland field foliage treatment (wheat), phytotoxicity; details: dose 1.6 g ai/10a, 14th day after treatment
Method in brief: (§5)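 Seeds of wheat, pale smartweed, slender amaranth, common lambsquarters and China jute are sown in sand and grown 2 weeks under glass. Foliage is then treated, culture resumes in the greenhouse, and damage is graded on the 14th day.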

China jute (Ab) [18] = experiment: Test Example 9: crop plant selectivity by upland field foliage treatment (wheat), herbicidal effects; assay type: in vivo; details: dose 1.6 g ai/10a, 14th day after treatment
Method in brief: as §5

[19] = tested on: common lambsquarters (Ch); experiment: as above; assay type: in vivo; details: dose 1.6 g ai/10a, 14th day after treatment
Method in brief: as §5

pale smartweed (Po) [20] = experiment: as above; assay type: in vivo; details: dose 1.6 g ai/10a, 14th day after treatment
Method in brief: as §5

slender amaranth (Am) [21] = experiment: as above; assay type: in vivo; details: dose 1.6 g ai/10a, 14th day after treatment
Method in brief: as §5

soybean (Gl) = experiment: Test Example 10: crop plant selectivity by upland field foliage treatment (soybean), phytotoxicity; details: dose 1.6 g ai/10a, 14th day after treatment
Experimental: (§6) (Test on Crop Plant Selectivity by Upland Field Foliage Treatment)
(§7) In a plastic pot (surface area: 600 cm^2) filled with sand, soybean (Gl), pale smartweed (Po), slender amaranth (Am), common lambsquarters (Ch) and China jute (Ab) were sown and cultured in a green house for 2 weeks. […] The plants were then cultured in a green house, and the evaluation of the herbicidal effects and phytotoxicity was conducted on the 14th day after the treatment in accordance with the standards as identified in Table 47.

China jute (Ab) [22] = experiment: Test Example 10: crop plant selectivity by upland field foliage treatment (soybean), herbicidal effects; assay type: in vivo; details: dose 1.6 g ai/10a, 14th day after treatment
Experimental: as §6, §7

[23] = tested on: common lambsquarters (Ch); experiment: as above; assay type: in vivo; details: dose 1.6 g ai/10a, 14th day after treatment
Experimental: as §6, §7

pale smartweed (Po) [24] = experiment: as above; assay type: in vivo; details: dose 1.6 g ai/10a, 14th day after treatment
Experimental: as §6, §7

slender amaranth (Am) [25] = experiment: as above; assay type: in vivo; details: dose 1.6 g ai/10a, 14th day after treatment
Experimental: as §6, §7

corn (Ze) = experiment: Test Example 11: crop plant selectivity by upland field foliage treatment (corn), phytotoxicity; details: upland field foliage treatment, dose 1.6 g ai/10a, 14th day after treatment
Method in brief: (§8)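 Corn and the weed species were sown together in sand-filled pots and grown in a greenhouse for 2 weeks before foliar treatment. Herbicidal effect was scored on day 14 after treatment against a graded standard scale, with corn phytotoxicity scored alongside.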

China jute (Ab) [26] = experiment: Test Example 11: crop plant selectivity by upland field foliage treatment (corn), herbicidal effects; assay type: in vivo; details: upland field foliage treatment (corn test), dose 1.6 g ai/10a, 14th day after treatment
Method in brief: as §8

[27] = tested on: common lambsquarters (Ch); experiment: as above; assay type: in vivo; details: upland field foliage treatment (corn test), dose 1.6 g ai/10a, 14th day after treatment
Method in brief: as §8

pale smartweed (Po) [28] = experiment: as above; assay type: in vivo; details: upland field foliage treatment (corn test), dose 1.6 g ai/10a, 14th day after treatment
Method in brief: as §8

slender amaranth (Am) [29] = experiment: as above; assay type: in vivo; details: upland field foliage treatment (corn test), dose 1.6 g ai/10a, 14th day after treatment
Method in brief: as §8

**Q.** What does the source list for CC(C)Oc1cc(-c2ccc(C(F)(F)F)n(C)c2=O)c(F)cc1Cl [Compound No. 1-14]?
**A.** Herbicidal effects Ec (barnyardgrass (Ec) [1]): 5; Herbicidal effects Sc (bulrush (Sc)): 5; Herbicidal effects Mo (monochoria (Mo)): 5; Herbicidal effects Di (Digitaria ciliaris (Di)): 5; Herbicidal effects Ec (barnyardgrass (Ec) [2]): 5; Herbicidal effects Ch [3]: 5; Herbicidal effects Po (pale smartweed (Po) [4]): 5; Herbicidal effects Ci (rice flatsedge (Ci) [5]): 5; Herbicidal effects Am (slender amaranth (Am) [6]): 5; Herbicidal effects Di (Diaitaria ciliaris (Di) [7]): 5; Herbicidal effects Ec (barnyardgrass (Ec) [8]): 5; Herbicidal effects Ch [9]: 5; Herbicidal effects Po (pale smartweed (Po) [10]): 5; Herbicidal effects Ci (rice flatsedge (Ci) [11]): 5; Herbicidal effects Am (slender amaranth (Am) [12]): 5; Phytotoxicity Go (cotton (Go); dose 1.6 g ai/10 a): 0; Phytotoxicity Go (cotton (Go); dose 6.3 g ai/10 a): 0; Herbicidal effects Di (Diaitaria ciliaris (Di) [13]; dose 1.6 g ai/10 a): 5; Herbicidal effects Di (Diaitaria ciliaris (Di) [13]; dose 6.3 g ai/10 a): 5; Herbicidal effects Ab (China jute (Ab) [14]; dose 1.6 g ai/10 a): 4; Herbicidal effects Ab (China jute (Ab) [14]; dose 6.3 g ai/10 a): 5; Herbicidal effects Ch ([15]; dose 1.6 g ai/10 a): 5; Herbicidal effects Ch ([15]; dose 6.3 g ai/10 a): 5; Herbicidal effects Se (green foxtail (Se)): 5; Herbicidal effects Po (pale smartweed (Po) [16]; dose 1.6 g ai/10 a): 5; Herbicidal effects Po (pale smartweed (Po) [16]; dose 6.3 g ai/10 a): 5; Herbicidal effects Am (slender amaranth (Am) [17]; dose 1.6 g ai/10 a): 5; Herbicidal effects Am (slender amaranth (Am) [17]; dose 6.3 g ai/10 a): 5

**Q.** For Cn1c(C(F)(F)F)ccc(-c2cc(Oc3ccccc3)c(Cl)cc2F)c1=O [Compound No. 1-22], which “Herbicidal effects Ec” value (barnyardgrass (Ec) [1]) is on record?
**A.** 5

**Q.** What about the “Herbicidal effects Sc” value (bulrush (Sc)) of the same compound?
**A.** 5

**Q.** And the “Herbicidal effects Mo” value (monochoria (Mo))?
**A.** 5

**Q.** And the “Herbicidal effects Di” value (Diaitaria ciliaris (Di) [7])?
**A.** 5

**Q.** What about the “Herbicidal effects Ec” value (barnyardgrass (Ec) [8]) of the same compound?
**A.** 5

**Q.** What about the “Herbicidal effects Ch” value [9] of the same compound?
**A.** 5

**Q.** What about the “Herbicidal effects Po” value (pale smartweed (Po) [10]) of the same compound?
**A.** 5

**Q.** What about the “Herbicidal effects Ci” value (rice flatsedge (Ci) [11]) of the same compound?
**A.** 5

**Q.** What about the “Herbicidal effects Am” value (slender amaranth (Am) [12]) of the same compound?
**A.** 5

**Q.** And the “Phytotoxicity Tr” value (wheat (Tr))?
**A.** 2

**Q.** And the “Herbicidal effects Ab” value (China jute (Ab) [18])?
**A.** 5

**Q.** And the “Herbicidal effects Ch” value [19]?
**A.** 5

**Q.** What about the “Herbicidal effects Po” value (pale smartweed (Po) [20]) of the same compound?
**A.** 5

**Q.** And the “Herbicidal effects Am” value (slender amaranth (Am) [21])?
**A.** 5

**Q.** And the “Phytotoxicity Gl” value (soybean (Gl))?
**A.** 2

**Q.** What about the “Herbicidal effects Ab” value (China jute (Ab) [22]) of the same compound?
**A.** 5

**Q.** And the “Herbicidal effects Ch” value [23]?
**A.** 5

**Q.** And the “Herbicidal effects Po” value (pale smartweed (Po) [24])?
**A.** 5

**Q.** What about the “Herbicidal effects Am” value (slender amaranth (Am) [25]) of the same compound?
**A.** 5

**Q.** And the “Phytotoxicity Ze” value (corn (Ze))?
**A.** 2

**Q.** What about the “Herbicidal effects Ab” value (China jute (Ab) [26]) of the same compound?
**A.** 5

**Q.** And the “Herbicidal effects Ch” value [27]?
**A.** 5

**Q.** And the “Herbicidal effects Po” value (pale smartweed (Po) [28])?
**A.** 5

**Q.** What about the “Herbicidal effects Am” value (slender amaranth (Am) [29]) of the same compound?
**A.** 5
